Data from the NIST ThermoML archive (doi:10.1016/j.jct.2015.02.008).

What was measured:
[1] = for molar entropy: 101.33 kPa, Vacuum adiabatic calorimetry
[2] = Molar enthalpy of transition or fusion; settings: Crystal; Adiabatic calorimetry
[3] = molar heat capacity at saturation pressure; settings: Vacuum adiabatic calorimetry

Oc1cccc2ccccc12 [1-naphthol]
Settings	Triple point temperature [K]	molar entropy [J/K/mol]	molar heat capacity [J/K/mol]
[1], 5 K, Crystal	–	0.1164	–
[1], 10 K, Crystal	–	1.006	–
[1], 20 K, Crystal	–	5.712	–
[1], 30 K, Crystal	–	12.49	–
[1], 40 K, Crystal	–	19.88	–
[1], 50 K, Crystal	–	27.32	–
[1], 60 K, Crystal	–	34.57	–
[1], 70 K, Crystal	–	41.6	–
[1], 80 K, Crystal	–	48.37	–
[1], 90 K, Crystal	–	54.94	–
[1], 100 K, Crystal	–	61.3	–
[1], 120 K, Crystal	–	73.57	–
[1], 140 K, Crystal	–	85.45	–
[1], 160 K, Crystal	–	97.07	–
[1], 180 K, Crystal	–	108.59	–
[1], 200 K, Crystal	–	120.05	–
[1], 220 K, Crystal	–	131.53	–
[1], 240 K, Crystal	–	143.02	–
[1], 260 K, Crystal	–	154.55	–
[1], 280 K, Crystal	–	166.13	–
[1], 298.15 K, Crystal	–	176.67	–
[1], 300 K, Crystal	–	177.75	–
[1], 320 K, Crystal	–	189.4	–
[1], 340 K, Crystal	–	201.04	–
[1], 360 K, Crystal	–	212.69	–
[1], 368.49 K, Crystal	–	217.66	–
[1], 368.49 K, Liquid	–	283.48	–
[1], 380 K, Liquid	–	292.12	–
[1], 400 K, Liquid	–	306.76	–
[1], 420 K, Liquid	–	320.97	–
[1], 440 K, Liquid	–	334.8	–
[1], Crystal, Adiabatic calorimetry	368.49	–	–
[3], 4.908 K, Crystal	–	–	0.3991
[3], 5 K, Crystal	–	–	0.4074
[3], 5.887 K, Crystal	–	–	0.6735
[3], 6.773 K, Crystal	–	–	0.9894
[3], 7.696 K, Crystal	–	–	1.413
[3], 8.736 K, Crystal	–	–	1.995
[3], 9.852 K, Crystal	–	–	2.752
[3], 10 K, Crystal	–	–	2.86
[3], 11.02 K, Crystal	–	–	3.658
[3], 12.26 K, Crystal	–	–	4.664
[3], 13.57 K, Crystal	–	–	5.837
[3], 14.97 K, Crystal	–	–	7.2
[3], 16.55 K, Crystal	–	–	8.755
[3], 18.3 K, Crystal	–	–	10.52
[3], 20 K, Crystal	–	–	12.18
[3], 20.23 K, Crystal	–	–	12.41
[3], 22.38 K, Crystal	–	–	14.54
[3], 24.77 K, Crystal	–	–	16.86
[3], 27.44 K, Crystal	–	–	19.4
[3], 30 K, Crystal	–	–	21.7
[3], 30.38 K, Crystal	–	–	22.03
[3], 33.63 K, Crystal	–	–	24.81
[3], 37.26 K, Crystal	–	–	27.77
[3], 40 K, Crystal	–	–	29.84
[3], 41.28 K, Crystal	–	–	30.77
[3], 45.76 K, Crystal	–	–	34.06
[3], 50 K, Crystal	–	–	36.83
[3], 50.77 K, Crystal	–	–	37.31
[3], 51.97 K, Crystal	–	–	38.07
[3], 56.32 K, Crystal	–	–	40.7
[3], 56.46 K, Crystal	–	–	40.78
[3], 60 K, Crystal	–	–	42.91
[3], 61.85 K, Crystal	–	–	43.99
[3], 68.38 K, Crystal	–	–	47.41
[3], 70 K, Crystal	–	–	48.25
[3], 75.62 K, Crystal	–	–	51.08
[3], 80 K, Crystal	–	–	53.33
[3], 83.14 K, Crystal	–	–	54.91
[3], 90 K, Crystal	–	–	58.16
[3], 91.41 K, Crystal	–	–	58.81
[3], 100 K, Crystal	–	–	62.77
[3], 100.48 K, Crystal	–	–	62.99
[3], 110.08 K, Crystal	–	–	67.46
[3], 119.95 K, Crystal	–	–	72.21
[3], 120 K, Crystal	–	–	72.23
[3], 130.14 K, Crystal	–	–	77.14
[3], 140 K, Crystal	–	–	82.08
[3], 140.31 K, Crystal	–	–	82.24
[3], 150.42 K, Crystal	–	–	87.34
[3], 160 K, Crystal	–	–	92.43
[3], 160.43 K, Crystal	–	–	92.66
[3], 170.36 K, Crystal	–	–	98.04
[3], 180 K, Crystal	–	–	103.34
[3], 180.29 K, Crystal	–	–	103.5
[3], 190.33 K, Crystal	–	–	109.13
[3], 200 K, Crystal	–	–	114.64
[3], 200.45 K, Crystal	–	–	114.9
[3], 210.56 K, Crystal	–	–	120.76
[3], 220 K, Crystal	–	–	126.26
[3], 220.64 K, Crystal	–	–	126.63
[3], 230.69 K, Crystal	–	–	132.62
[3], 240 K, Crystal	–	–	138.13
[3], 240.71 K, Crystal	–	–	138.54
[3], 250.73 K, Crystal	–	–	144.61
[3], 260 K, Crystal	–	–	150.24
[3], 260.74 K, Crystal	–	–	150.69
[3], 270.62 K, Crystal	–	–	156.67
[3], 280 K, Crystal	–	–	162.4
[3], 280.51 K, Crystal	–	–	162.71
[3], 290.52 K, Crystal	–	–	168.83
[3], 298.15 K, Crystal	–	–	173.51
[3], 300 K, Crystal	–	–	174.64
[3], 300.53 K, Crystal	–	–	174.97
[3], 310.57 K, Crystal	–	–	180.81
[3], 320 K, Crystal	–	–	186.29
[3], 320.58 K, Crystal	–	–	186.63
[3], 331.02 K, Crystal	–	–	192.65
[3], 340 K, Crystal	–	–	197.95
[3], 341.47 K, Crystal	–	–	198.62
[3], 351.79 K, Crystal	–	–	205.33
[3], 360 K, Crystal	–	–	210.16
[3], 360.7 K, Crystal	–	–	210.52
[3], 368.49 K, Crystal	–	–	215.56
[3], 368.49 K, Liquid	–	–	279.12
[3], 375.44 K, Liquid	–	–	281.15
[3], 375.53 K, Liquid	–	–	281.2
[3], 380 K, Liquid	–	–	282.47
[3], 382.75 K, Liquid	–	–	283.25
[3], 389.88 K, Liquid	–	–	285.37
[3], 400 K, Liquid	–	–	288.35
[3], 405.81 K, Liquid	–	–	290.05
[3], 420 K, Liquid	–	–	294.27
[3], 423.59 K, Liquid	–	–	295.34
[3], 438.9 K, Liquid	–	–	299.86
[3], 440 K, Liquid	–	–	300.19

[1], Liquid
Settings	mass density [kg/m3]	vapor or sublimation pressure [kPa]
369.98 K, Inclined piston gauge	–	0.1033
373.12 K, Inclined piston gauge	–	0.1259
374.97 K, Inclined piston gauge	–	0.1406
383.13 K, Inclined piston gauge	–	0.2221
384.98 K, Inclined piston gauge	–	0.2455
393 K, Pycnometric method	1063	–
393.13 K, Inclined piston gauge	–	0.3779
394.98 K, Inclined piston gauge	–	0.4163
403.12 K, Inclined piston gauge	–	0.6229
404.96 K, Inclined piston gauge	–	0.6815
408.13 K, Inclined piston gauge	–	0.7902
413.12 K, Inclined piston gauge	–	0.9955
414.97 K, Inclined piston gauge	–	1.085
418.12 K, Inclined piston gauge	–	1.249
423.12 K, Inclined piston gauge	–	1.551
424.96 K, Inclined piston gauge	–	1.68
429.2 K, Twin ebulliometer	–	2
429.96 K, Inclined piston gauge	–	2.071
434.97 K, Inclined piston gauge	–	2.537
436.27 K, Twin ebulliometer	–	2.666
439.96 K, Inclined piston gauge	–	3.091
446.77 K, Twin ebulliometer	–	4
454.6 K, Twin ebulliometer	–	5.333
466.26 K, Twin ebulliometer	–	7.999
475.01 K, Twin ebulliometer	–	10.67
482.08 K, Twin ebulliometer	–	13.33
489.42 K, Twin ebulliometer	–	16.66
495.53 K, Twin ebulliometer	–	19.93
503.55 K, Twin ebulliometer	–	25.02
511.63 K, Twin ebulliometer	–	31.17
519.75 K, Twin ebulliometer	–	38.56
527.93 K, Twin ebulliometer	–	47.37
536.16 K, Twin ebulliometer	–	57.81
544.44 K, Twin ebulliometer	–	70.11
552.77 K, Twin ebulliometer	–	84.53
561.14 K, Twin ebulliometer	–	101.32
569.59 K, Twin ebulliometer	–	120.78

Settings	Molar enthalpy of transition or fusion [kcal/mol]
[2]	5.798
